Holding throughout (assay type): biochemical
Experiment [1] concerns the target T1, insulin amyloid fibrillation (Homo sapiens, UniProt P01308). The experiment in a line: effect of L-ascorbic acid on insulin amyloid fibrillation, thioflavin T fluorescence assay. Particulars: detected by thioflavin T. As to the method:
(§1) In kinetics, insulin amyloid fibrillation can be modeled by a sigmoid function with three different phases: lag phase, log phase, and stationary phase. The values of kapp and tlag for insulin amyloid fibrillation were determined using the sigmoid function which was based on the equation shown below (see similar examples of data fitting in Nielsen et al., Biochemistry, 40:6036-6046 (2001); Hwang et al., J. Biol. Chem., 285:41701-41711 (2010); and Donabedian et al., ACS Chem. Neurosci., 6:1526-1535 (2015)).
(§2) where y is the absorbance, emission intensity, or RLS intensity; A1 is the absorbance, emission intensity, or RLS intensity before amyloid fibrillation; A2 is the absorbance, emission intensity, or RLS intensity after amyloid fibrillation; x is the incubation time; xo is the incubation time at which the absorbance, emission intensity, or RLS intensity is at half maximum; and dx is the time constant. Accordingly, the apparent rate constant, kapp, is equivalent to 1/dx, and the lag time, tlag, is given by xo−2dx.
(§3) Insulin was dissolved at 1.0 mg mL^−1 in an acidic buffer ([NaCl]=137 mM, [KCl]=2.7 mM, pH=2.0) in the presence of different amounts (0, 10, 20, 50, 70, 100 mM) of L-ascorbic acid. The solution was incubated at 65° C. and stirred at 300 rpm. Aliquots were withdrawn at a desired time interval. Insulin samples (10 μM) with different incubation times were added to a solution of thioflavin T (10 μM) in a PBS buffer (10.0 mM, pH=7.4). The emission spectra were recorded at 25° C. at an excitation wavelength of 440 nm. Similarly, insulin samples (10 μM) with different incubation times were added to a solution of complex 1-Pt (50 μM) in a PBS buffer (10.0 mM, pH=7.4, 10% DMSO). The emission spectra were recorded at 25° C. at an excitation wavelength of 400 nm. The values of kapp and tlag for insulin amyloid fibrillation were determined from fitting using the sigmoid equation listed above.

The target in experiment [2] is T1, insulin amyloid fibrillation. Briefly: effect of L-ascorbic acid on insulin amyloid fibrillation, complex 1-Pt luminescence assay. The note with it: for kapp of insulin amyloid fibrillation / tlag of insulin amyloid fibrillation: detected by complex 1-Pt. As to the method:
as §1, §2, §3

For experiment [3] the target is unchanged. The experiment in a line: kinetics of insulin amyloid fibrillation reported by probe (sigmoid fit). The note with it: method: Emission; insulin 10 μM; thioflavin T 10 μM (490 nm) or complex 1-Pt 50 μM (650 nm); no L-ascorbic acid. The protocol:
To induce amyloid fibrillation, insulin was dissolved at 1.0 mg mL^−1 in an acidic buffer ([NaCl]=137 mM, [KCl]=2.7 mM, pH=2.0). The solution was incubated at 65° C. and stirred at 300 rpm. Insulin samples with different incubation times were added to a solution of thioflavin T in a PBS buffer (10.0 mM, pH=7.4). The final concentrations of insulin and thioflavin T were both 10 μM. The emission spectra were recorded at 25° C. at an excitation wavelength of 440 nm. Similarly, insulin samples with different incubation times were added to a solution of complex 1-Pt in a PBS buffer (10.0 mM, pH=7.4, 10% DMSO). The final concentrations of insulin and complex 1-Pt were 10 μM and 50 μM, respectively. UV-Vis absorption spectra, emission spectra, and RLS spectra were recorded at 25° C.; the emission spectra were recorded at an excitation wavelength of 400 nm.
In kinetics, insulin amyloid fibrillation can be modeled by a sigmoid function with three different phases: lag phase, log phase, and stationary phase. The values of kapp and tlag for insulin amyloid fibrillation were determined using the sigmoid function which was based on the equation shown below (see similar examples of data fitting in Nielsen et al., Biochemistry, 40:6036-6046 (2001); Hwang et al., J. Biol. Chem., 285:41701-41711 (2010); and Donabedian et al., ACS Chem. Neurosci., 6:1526-1535 (2015)). […]

T1 sequence (P01308 25-54 limits assumed): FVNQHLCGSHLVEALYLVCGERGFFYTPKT
T1 sequence (P01308 90-110 limits assumed): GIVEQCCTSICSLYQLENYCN

In the case of `O=C1O[C@H]([C@@H](O)CO)C(O)=C1O` [L-ascorbic acid], the “kapp of insulin amyloid fibrillation” value in experiment [1] (L-ascorbic acid 10 mM) was 0.19 ± 0.09 min⁻¹; in experiment [1] (L-ascorbic acid 20 mM) it was 0.17 ± 0.08 min⁻¹; in experiment [1] (L-ascorbic acid 50 mM), 0.17 ± 0.08 min⁻¹; in experiment [1] (L-ascorbic acid 70 mM), 0.14 ± 0.07 min⁻¹; in experiment [2] (L-ascorbic acid 10 mM), 0.18 ± 0.09 min⁻¹; in experiment [2] (L-ascorbic acid 20 mM), 0.16 ± 0.08 min⁻¹. For the same compound, the figures for the “kapp of insulin amyloid fibrillation” value in experiment [2] (L-ascorbic acid 50 mM) and in experiment [2] (L-ascorbic acid 70 mM) were 0.15 ± 0.07 min⁻¹ and 0.12 ± 0.06 min⁻¹, respectively. Moreover, the “tlag of insulin amyloid fibrillation” value in experiment [1] (L-ascorbic acid 10 mM) was found to be 54.3 ± 0.2 min; in experiment [1] (L-ascorbic acid 20 mM), 57.2 ± 0.3 min; in experiment [1] (L-ascorbic acid 50 mM) it was 68.3 ± 0.3 min; in experiment [1] (L-ascorbic acid 70 mM) it was 83.0 ± 0.3 min; in experiment [2] (L-ascorbic acid 10 mM) it was 53.2 ± 0.2 min; in experiment [2] (L-ascorbic acid 20 mM), 59.2 ± 0.3 min. Besides, the “tlag of insulin amyloid fibrillation” value was 70.1 ± 0.6 min in experiment [2] (L-ascorbic acid 50 mM) and 85.6 ± 0.6 min in experiment [2] (L-ascorbic acid 70 mM). The “inhibition effect on amyloid fibrillation” value in experiment [2] (L-ascorbic acid 0-100 mM, thioflavin T and complex 1-Pt assays) is recorded as “concentration dependent”.
Regarding `Cc1ccc2c(c1)sc(-c1ccc(N(C)C)cc1)[n+]2C.[Cl-]` [Thioflavin T, thioflavin T], in experiment [3], the “kapp (apparent rate constant of insulin amyloid fibrillation)” value amounted to 0.23 ± 0.08 min⁻¹ and the “tlag (lag time of insulin amyloid fibrillation)” value turned out to be 54.0 ± 0.1 min.

These data come from patent publication US20210165001A1, “COMPOSITIONS AND METHODS FOR DETECTION AND IMAGING OF AMYLOID FIBRILS, AMYLOID PLAQUES, RNA, AND NUCLEOLI” (The University of Hong Kong, priority 2018, published 2021).
